Experimental data as given in patent US20210101879A1, “AMYLOID PROTEIN-SELECTIVE BACE INHIBITORS (ASBIs) FOR ALZHEIMER?S DISEASE” (The Regents of the University of California, priority 2018, published 2021).
Several values for one entry are separate records, joined by “and”; a condition that tells them apart may be missing. Equal values may be shown once. Read-outs that look alike come from different tables or passages of the source.

Assays:
BACE-1 = BACE-1 (Homo sapiens (Human), UniProt P56817); assay: cell-free BACE enzyme assay with P5-P5′ substrate; format: biochemical
Chain of BACE-1 (P56817 46-501): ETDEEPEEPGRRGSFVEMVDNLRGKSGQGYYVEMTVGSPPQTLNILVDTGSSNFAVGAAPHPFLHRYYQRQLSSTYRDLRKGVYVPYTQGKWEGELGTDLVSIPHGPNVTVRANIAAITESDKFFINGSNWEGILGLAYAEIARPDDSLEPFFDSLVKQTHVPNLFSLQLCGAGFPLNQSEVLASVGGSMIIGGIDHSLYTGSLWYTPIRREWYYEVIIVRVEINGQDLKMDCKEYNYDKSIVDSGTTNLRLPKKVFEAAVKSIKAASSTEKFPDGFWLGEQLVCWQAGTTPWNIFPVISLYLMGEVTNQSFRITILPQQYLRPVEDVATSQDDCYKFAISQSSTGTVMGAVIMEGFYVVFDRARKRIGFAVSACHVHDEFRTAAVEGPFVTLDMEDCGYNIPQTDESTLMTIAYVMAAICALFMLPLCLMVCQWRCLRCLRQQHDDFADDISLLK
Experimental: For the assay, 4 μL of assay buffer was added to each well, followed by 2 μL of BACE-1 diluted in assay buffer to 7.5 ng/μL. Then, 2 μL of inhibitor, at concentrations along an 11 pt. two-fold dilution series starting at 0.5 μM, were added to appropriate wells and incubated for 30 minutes at room temperature. Afterwards, 2 μL of P5-P5′ BACE-1 substrate, diluted to 50 μM in assay buffer, were added to each well, after which the signal generated was read every 30 minutes at 25° C. for 2 hr.

Cathepsin D (CatD) = Cathepsin D (CatD) (Homo sapiens (Human), UniProt P07339); assay: Cathepsin-D assay; format: biochemical
Chain of Cathepsin D (CatD) (P07339 65-412, species assumed): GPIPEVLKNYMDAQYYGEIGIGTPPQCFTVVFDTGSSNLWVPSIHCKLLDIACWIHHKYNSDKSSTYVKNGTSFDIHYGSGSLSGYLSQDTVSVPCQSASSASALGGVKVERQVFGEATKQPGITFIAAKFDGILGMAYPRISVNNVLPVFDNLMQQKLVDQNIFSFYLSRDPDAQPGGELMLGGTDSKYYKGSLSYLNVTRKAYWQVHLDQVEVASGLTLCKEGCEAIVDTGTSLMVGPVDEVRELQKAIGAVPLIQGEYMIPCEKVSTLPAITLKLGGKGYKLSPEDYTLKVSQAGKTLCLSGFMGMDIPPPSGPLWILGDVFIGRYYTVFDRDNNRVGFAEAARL
Experimental: For the assay, 4 μL of assay buffer was added to each well, followed by 2 μL of Cathepsin D (CatD) diluted in assay buffer to 5 ng/μL. Then, 2 μL of inhibitor, prepared to get a testing concentration of 20 μM, were added to appropriated wells and incubated for 30 minutes at room temperature. Afterwards, 2 μL of CatD substrate, diluted to 50 μM in assay buffer, were added to each well, after which the signal generated was read every 30 minutes at 25° C. for 1 hr. Signals shown in FIG. 6 are representative of readings at 1 hr.

PAMPA = format: in vitro ADME
[1] = tested on: CHO-7W cells (stably transfected with human amyloid precursor protein wildtype); assay: CHO-7W cell assay (AlphaLISA of media); format: cell-based, Chinese hamster; conditions: treatment for 24 hours
Experimental: For the assay, 50 μL of CHO-7W cells were added to each well at 4×10^5 cells/mL. Then, 50 μL of inhibitor, prepared for tested concentrations, were added to appropriated wells and incubated for 24 hours at 37° C. Afterwards, media from each well is collected and assayed using an AlphaLISA assay for respective analytes.

[2] = tested on: neuregulin 1 (NRG-1) (Homo sapiens (Human)); assay: NRG1 cleavage assay in NRG1-BACE1 co-transfected 293T cells; format: cell-based
Experimental: (§1) 293T cells were plated in 96-well plates at 40,000 cells/well, incubated overnight at 37° C. and 5% CO2. Next day, cells were co-transfected with NRG1-BACE1 plasmids or PSGL1-BACE1 plasmids using Lipofectamine2000, as describe previously. Six hours after transfection, the reagents were removed and media containing the different compounds at various concentrations were loaded into each well.
(§2) After overnight incubation with the compounds, 20 μL of media were removed and added to a new plate. Then, 200 μl of reaction solution (0.1 M glycine, pH 10.4, 1 mM MgCl2, 1 mM ZnCl2 containing 1 mg/ml 4-nitrophenyl phosphate disodium salt hexahydrate, Sigma S0942) were loaded into each well of the plate. The absorbance was read at 405 nm for 60 min in 30 min intervals in a SpectraMax M5.
(§3) These compounds were diluted to 10 mM in DMSO. This solution was diluted to 20, 10, 2, 1, 0.2 and 0.02 μM in DMEM high Glucose containing 10% of FBS and 1% of Penicillin-Streptomycin containing 0.2% DMSO.

[3] = tested on: p-selectin glycoprotein ligand 1 (PSGL-1) (Homo sapiens (Human)); assay: PSGL1 cleavage assay in PSGL1-BACE1 co-transfected 293T cells; format: cell-based
Experimental: as §1, §2, §3

pharmacokinetics in mice = format: in vivo
BACE cleavage of APP [4] = assay: pilot study in AD model mice; format: in vivo; conditions: orally 30 mg/kg/day for 10 days
[5] = pharmacokinetic study in rats; format: in vivo; conditions: wildtype Sprague-Dawley rats, 30 mg/kg orally, at 2 hours
BACE cleavage of APP [6] = assay: pharmacodynamic pilot study in rats (CSF and brain tissue); format: in vivo, Sprague-Dawley rats; conditions: 30 mg/kg orally

Q: For `Cc1cc(C2(c3cccc(-c4cncnc4)c3)N=C(N)N(C)C2=O)ccc1OC(F)F` (racemic) [FAH-65, 2-amino-5-(4-(difluoromethoxy)-3-methylphenyl)-3-methyl-5-(3-(pyrimidin-5-yl)phenyl)-3,5-dihydro-4H-imidazol-4-one], which IC50 (BACE-1; cell-free BACE assay) is on record?
A: 22 nM

Q: And the IC50 (BACE-1; cell-free, several replicate values per cell, some flagged 's' (flag not defined), read-out: BACE1 IC50)?
A: 5 to 10 nM and 19 nM and 11.2 nM and 16 nM and 11 nM and 15 nM and 24 nM and 14 nM

Q: And the IC50 (Cathepsin D (CatD))?
A: 47100 nM

Q: And the PAMPA (PAMPA)?
A: 0.44 and 0.45 and 0.46 and 0.47 and 0.52 and 0.48 and 0.49

Q: And the “amyloid-beta (Aβ)” value [1]?
A: significantly decreased

Q: And the “soluble amyloid precursor protein beta (sAPPβ)” value [1]?
A: significantly decreased

Q: And the “inhibitory activity in cleavage of neuregulin 1 (NRG-1)” value [2]?
A: little cleavage

Q: And the “inhibitory activity in cleavage of p-selectin glycoprotein ligand 1 (PSGL-1)” value [3]?
A: little cleavage

Q: And the brain penetrance (pharmacokinetics in mice)?
A: brain-penetrant

Q: And the peak in brain (pharmacokinetics in mice; oral delivery at 30 mg/kg, one hour post-dosing)?
A: 74 ng/g

Q: And the “BACE/γ-secretase product Aβ” value (BACE cleavage of APP [4])?
A: trend to decrease

Q: What about the “decrease of APP-derived BACE cleavage product βCTF (beta C-terminal fragment)” value (BACE cleavage of APP [4]) of the same compound?
A: significantly

Q: What about the brain peak [5] of the same compound?
A: 182 ng/g

Q: What about the “sAPPβ in CSF” value (BACE cleavage of APP [6]; at 3 and 6 hours, vs untreated controls) of the same compound?
A: reduced

Q: And the Aβ1-40 levels (BACE cleavage of APP [6]; compared to control, decrease persisted to 24 hours)?
A: decreased
